Experimental data from patent publication US7432303B2, “Chalcone and its analogs as agents for the inhibition of angiogenesis and related disease states” (James and Emory University, priority 1999, dated 2008).

System: SVR cells
Test: SVR cell assay: cell numbers counted at 48 hours, percent inhibition versus control
Format: cell-based, murine
Settings: 10,000 SVR cells in 24 well dish, counted at 48 hours; for inhibition at 1 µg/mL / inhibition at 3 µg/mL / inhibition at 6 µg/mL / inhibition at 9 µg/mL: Mus musculus; for inhibition at 1 µg/mL / Percent Inhibition at a Specified Density (μg/ml): 1: 1 μg/ml; for inhibition at 1 µg/mL: read-out: Percent Inhibition at a Specified Density (μg/ml): 1; for inhibition at 3 µg/mL / Percent Inhibition at a Specified Density (μg/ml): 3: 3 μg/ml; for inhibition at 3 µg/mL: read-out: Percent Inhibition at a Specified Density (μg/ml): 3; for inhibition at 6 µg/mL / Percent Inhibition at a Specified Density (μg/ml): 6: 6 μg/ml; for inhibition at 6 µg/mL: read-out: Percent Inhibition at a Specified Density (μg/ml): 6; for Percent Inhibition at a Specified Density (μg/ml): 9 / inhibition at 9 µg/mL: 9 μg/ml; for inhibition at 9 µg/mL: read-out: Percent Inhibition at a Specified Density (μg/ml): 9
Experimental: In the case of testing the anti-angiogenic/anti-cancer activity of compounds according to the present invention, an assay based on SVR cells may be employed. […] The cell numbers are counted and compared against controls. Percent inhibition is readily determined from the data obtained.
10,000 SVR cells were seeded in a 24 well dish [Arbiser, et al., J. Am. […] The cell numbers were counted at 48 hours.

SMILES | inhibition at 1 µg/mL [%] | inhibition at 3 µg/mL [%] | inhibition at 6 µg/mL [%] | Percent Inhibition at a Specified Density (μg/ml): 1 [%] | Percent Inhibition at a Specified Density (μg/ml): 3 [%] | Percent Inhibition at a Specified Density (μg/ml): 6 [%] | Percent Inhibition at a Specified Density (μg/ml): 9 [%] | inhibition at 9 µg/mL [%]
O=C1CCCCC1=Cc1ccccc1 [Compound 7, 2-(Benzylidene)cyclohexanone] | 23 | 29.5 | 72.4 |  |  |  |  | 
O=C(C=Cc1c2ccccc2cc2ccccc12)c1ccccc1 [Compound 52, 3-(9-Anthryl)-1-phenylpropenone] |  |  |  | 54.6 | 53.5 | 71.3 |  | 
Cc1ccc(/C=C/C(=O)c2ccc(C)cc2)cc1 [Compound 20, 4,4′-Dimethylchalcone] | 36.6 | 67.3 | 89.5 |  |  |  |  | 
Cc1ccc(C(=O)/C=C/c2c(Cl)cccc2Cl)cc1 [Compound 28, 2,6-Dichloro-4′-methylchalcone] | 73.7 | 98.2 | 98.1 |  |  |  |  | 
O=C(C=Cc1cccc2ccccc12)c1cccc2ccccc12 [Compound 65, 1,3-Di(1-naphthyl)propenone] |  |  |  | 12.0 | 55.5 | 60.3 |  | 
O=C(/C=C/c1ccco1)/C=C/c1ccco1 [Compound 74, 1,5-Di(2-furyl)-1E,4E-pentadien-3-one] | 0 | 9.3 | 56.5 |  |  |  |  | 
O=C(C=Cc1ccc2ccccc2c1)c1ccc2ccccc2c1 [Compound 60, 1,3-Di(2-naphthyl)propenone] |  |  |  |  | 13.2 | 20.3 | 27.1 | 
O=C(/C=C/c1ccccc1)c1cccc(C(F)(F)F)c1 [Compound 18, 3′-(Trifluoromethyl)chalcone] | 42.2 | 87.4 | 96.9 |  |  |  |  | 
O=C(/C=C/c1c(Cl)cccc1Cl)c1c(Cl)cccc1Cl [Compound 32, 2,2′,6,6′-Tetrachlorochalcone] |  | 74.9 | 97 |  |  |  |  | 98.1
Cc1ccc(C(=O)/C=C/c2ccc(Cl)cc2Cl)cc1 [Compound 27, 2,4-Dichloro-4′-methylchalcone] | 19.9 | 10.4 | 84.6 |  |  |  |  | 
O=C1C(=Cc2ccccc2)CCCC1=Cc1ccccc1 [Compound 75, 2,6-Di(benzylidene)cyclohexanone] |  | 91.3 | 92.8 |  |  |  |  | 97.4
O=C(/C=C/c1ccccc1)c1c(Cl)cccc1Cl [Compound 33, 2′,6′-Dichlorochalcone] | 2.23 | 51.1 | 88.7 |  |  |  |  | 
O=C(C=Cc1ccc[nH]1)c1ccccc1 [Compound 50, 1-Phenyl-3-(2-pyrrolyl)propenone] |  |  |  | 19.0 | 21.5 | 0.0 |  | 
O=C(C=Cc1ccccc1)c1ccc2ccccc2c1 [Compound 61, 1-(2-Naphthyl)-3-phenylpropenone] |  |  |  |  | 92.2 | 94.7 | 96.0 | 
O=C(/C=C/c1ccc(OCc2ccccc2)cc1)c1ccc(Cl)cc1 [Compound 25, 4-Benzyloxy-4′-chlorochalcone] | 25.6 | 4.4 | 62.9 |  |  |  |  | 
O=C(/C(Br)=C/c1ccccc1)c1ccccc1 [Compound 41, α-Bromo-Z-chalcone] |  |  |  | 57.2 | 75.7 | 79.8 |  | 
COc1cccc(OC)c1C(=O)/C=C/c1ccccc1 [Compound 38, 2′,6′-Dimethoxychalcone] | 25.8 | 39.8 | 63.5 |  |  |  |  | 
